From patent publication US20160279190A1, “MODULATION OF AXON DEGENERATION” (GENENTECH, INC., priority 2008, published 2016)

Tested on: sympathetic neurons
Assay: toxin-induced degeneration of sympathetic neurons, MTT assay
Type: cell-based, rat
Conditions: 24 hour treatment with the toxin alone
Method: Cortical neurons plated for 3-4 days were treated with 300 nM vincristine, a microtubule destabilizer, for 6-72 hours. NGF withdrawal-induced apoptosis and degeneration were assayed between 4-36 hours after the final treatment. Apoptosis and degeneration were assayed using both the MTT assay and the lactate dehydrogenase assay. The MTT (3-(4,5-dimethylthiazol-2-yl)-2,5-diphenyltetrazolium bromide) assay measures cell viability based on mitochondrial function. MTT was added to a total of one tenth of the culture volume to each well and incubated at 37° C. with 5% CO2 for 90-120 minutes. The MTT-containing culture media was aspirated and the cells were resuspended in an equal volume of solubilization solution (10% triton X-100, 1 drop HCl, 50 mL isopropanol). Absorbance (570 and 690 nm) was read using a spectrophotometer. Lactate dehydrogenase (LDH) levels were assayed using a CytoTox non-radioactive LDH assay kit (Promega) to assess the amount of cell death in assays. Fifty μL of media from different treatment conditions were used according to the manufacturer's instructions. […]
Sympathetic cervical ganglia were dissected from postnatal day 1 Sprague-Dawley rats (Charles River Labs) and collected in a dish containing Ultraculture media (Lonza) with 5% fetal bovine serum (Invitrogen). […] The cell slurry was filtered over a […] cell strainer (Falcon) and cell number was counted. […]

## CC[C@@]1(O)C(=O)OCc2c1cc1n(c2=O)Cc2cc3ccccc3nc2-1 [camptothecin]
  % viability (normalized): 79%
